One data set concerns HepG2. Description: Cytotoxicity against human HepG2 cells assessed as reduction in cell viability measured after 24 hrs by WST1 assay. In kind it is functional. Particulars: HepG2, 24 h, read-out: LC50 (the source's name).
A short description of data set [1]: Hemolytic activity against human erythrocytes measured after 1 hr. In kind it is ADME, cell-based, Erythrocyte.
Data set [2] relates to Staphylococcus aureus. In words: Antibacterial activity against methicillin-resistant Staphylococcus aureus MW2 BAA 1707 assessed as growth inhibition by standard microdilution method. In kind it is functional.
A further data set deals with HeLa. Description: Cytotoxicity against human HeLa cells assessed as reduction in cell viability measured after 24 hrs by WST1 assay. Format: functional. The note with it: read-out: LC50 (the source's name).
Data set [3] concerns Staphylococcus aureus. Description: Antibacterial activity against vancomycin-resistant Staphylococcus aureus VRS1 assessed as growth inhibition by standard microdilution method. Format: functional.
Data set [4] deals with Staphylococcus aureus. In words: Antibacterial activity against methicillin-resistant Staphylococcus aureus JE2 assessed as growth inhibition by standard microdilution method. In kind it is functional.
Data set [5] has as its system Staphylococcus aureus. In words: Antibacterial activity against methicillin-resistant Staphylococcus aureus ATCC 33591 assessed as growth inhibition by standard microdilution method. Format: functional.
Data set [6] has as its system Staphylococcus aureus. Description: Antibiofilm activity against methicillin-resistant Staphylococcus aureus MW2 assessed as reduction in number of viable cells by measuring colony forming units at 16 fold MIC relative to control. In kind it is functional.
In data set [7] the test system is Staphylococcus aureus. In words: Antibacterial activity against methicillin-resistant Staphylococcus aureus MW2 assessed as growth inhibition. In kind it is functional.

SMILES strings stand for the structures. Values after ≈ are worked out from the molar mass of the structure shown.

The results in this text go back to ChEMBL document CHEMBL4342495, “Structure-Activity Relationship and Anticancer Profile of Second-Generation Anti-MRSA Synthetic Retinoids” (ACS Med Chem Lett, 2020).

As to `CCCCCCCC=Cc1cc(-c2ccc3cc(CO)ccc3c2)ccc1O`, in the data set on HepG2, the CC50 is 5.51 µg/mL. Also, the HC50 at 1 h in [1] was above 64 µg/mL. For the same compound, the MIC in the data set on Staphylococcus aureus [2] is above 64 µg/mL.

In the case of `CCCCCCCCCc1cc(-c2ccc3cc(C(=O)O)ccc3c2)ccc1O`, in the data set on HepG2, the CC50 worked out at 1.73 µg/mL. The same compound showed an HC50 at 1 h in [1] of 22.8 µg/mL. Further, in the data set with Staphylococcus aureus [2], the minimum inhibitory concentration (MIC) stood at 4 µg/mL.

Consider `CCCCCCCc1cc(-c2ccc3cc(C(=O)O)ccc3c2)ccc1O`, for which the CC50 in the data set on HepG2 was determined as 1.89 µg/mL; with HeLa, 0.6 µg/mL (≈ 1.66 µM). The same compound registered a concentration for 50% haemolysis (HC50) at 1 h in [1] above 64 µg/mL. Also, the minimum inhibitory concentration (MIC) with Staphylococcus aureus [2] was determined as 4 µg/mL.

With `CCCCCCCc1cc(-c2ccc3cc(CO)ccc3c2)ccc1O`, in the data set with HepG2, the CC50 was found to be 3.61 µg/mL. The compound further returned a concentration for 50% haemolysis (HC50) at 1 h in [1] above 64 µg/mL. In the data set with Staphylococcus aureus [2], the MIC was determined as 4 µg/mL.

`CC12CC3CC(C)(C1)CC(c1cc(-c4ccc5cc(CO)ccc5c4)ccc1O)(C3)C2`: in the data set on HepG2, the CC50 turned out to be 11.7 µg/mL. Also, the 50% haemolytic concentration (HC50) at 1 h in [1] was above 64 µg/mL. Besides, the minimum inhibitory concentration (MIC) in the data set on Staphylococcus aureus [2] was found to be 8 µg/mL.

Regarding `Cc1cc(-c2ccc3cc(CO)ccc3c2)ccc1O`, the CC50 with HepG2 is above 32 µg/mL. Also, the HC50 at 1 h in [1] is above 64 µg/mL. The MIC in the data set on Staphylococcus aureus [2] was above 64 µg/mL.

On to `CC(C)(C)c1cc(-c2ccc3cc(CO)ccc3c2)ccc1O`, for which the CC50 in the data set on HepG2 was 7.5 µg/mL. The same compound had an HC50 at 1 h in data set [1] above 64 µg/mL. For the same compound, the minimal inhibitory concentration (MIC) in the data set on Staphylococcus aureus [2] was determined as 8 µg/mL.

Turning to `CCCC=Cc1cc(-c2ccc3cc(C(=O)O)ccc3c2)ccc1O`, the CC50 in the data set with HepG2 was 5.38 µg/mL. The 50% haemolytic concentration (HC50) at 1 h in data set [1] was above 64 µg/mL. Further, the MIC in the data set on Staphylococcus aureus [2] was 16 µg/mL.

Consider `CCCCCc1cc(-c2ccc3cc(CO)ccc3c2)ccc1O`, for which, in the data set with HepG2, the CC50 stood at 3.27 µg/mL. This compound also came in with a 50% haemolytic concentration (HC50) at 1 h in [1] above 64 µg/mL. In the data set with Staphylococcus aureus [2], the minimum inhibitory concentration (MIC) worked out at 4 µg/mL.

`Cc1cc(-c2ccc3cc(C(=O)O)ccc3c2)ccc1O`: in the data set with HepG2, the CC50 is above 32 µg/mL. The compound also came in with a concentration for 50% haemolysis (HC50) at 1 h in data set [1] above 64 µg/mL. Further, the minimal inhibitory concentration (MIC) in the data set with Staphylococcus aureus [2] is above 64 µg/mL.

Take `CCCCCc1cc(-c2ccc3cc(C(=O)O)ccc3c2)ccc1O`: the CC50 in the data set with HepG2 was determined as 3.26 µg/mL. The 50% haemolytic concentration (HC50) at 1 h in [1] was above 64 µg/mL. In addition, the MIC in the data set with Staphylococcus aureus [2] was found to be 8 µg/mL.

Regarding `CCCCCC=Cc1cc(-c2ccc3cc(CO)ccc3c2)ccc1O`, the CC50 in the data set with HepG2 was determined as 4.19 µg/mL. In [1], this compound gave a concentration for 50% haemolysis (HC50) at 1 h above 64 µg/mL. For the same compound, the MIC in the data set with Staphylococcus aureus [2] amounted to 4 µg/mL.

For the compound `OCc1ccc2cc(-c3ccc(O)cc3)ccc2c1`, in the data set on HepG2, the CC50 came to 1.7 µM. In data set [1], this compound showed an HC50 at 1 h above 64 µg/mL. Besides, the MIC in the data set with Staphylococcus aureus [2] is above 64 µg/mL.

As for `O=C(O)c1ccc2cc(-c3ccc(O)cc3)ccc2c1`, in the data set on HepG2, the CC50 was above 32 µg/mL. The compound also yielded an HC50 at 1 h in data set [1] above 64 µg/mL. The minimal inhibitory concentration (MIC) in the data set with Staphylococcus aureus [2] is above 64 µg/mL.

As to `CCCC=Cc1cc(-c2ccc3cc(CO)ccc3c2)ccc1O`, in the data set on HepG2, the CC50 was 3.89 µg/mL. Moreover, the 50% haemolytic concentration (HC50) at 1 h in data set [1] is above 64 µg/mL. Besides, the MIC with Staphylococcus aureus [2] worked out at 4 µg/mL.

With `CCCCCC=Cc1cc(-c2ccc3cc(C(=O)O)ccc3c2)ccc1O`, the CC50 with HepG2 stood at 2.44 µg/mL. Besides, the HC50 at 1 h in [1] is 45.4 µg/mL. Further, the MIC in the data set with Staphylococcus aureus [2] worked out at 8 µg/mL.

Regarding `CC12CC3CC(C)(C1)CC(c1cc(-c4ccc5cc(C(=O)O)ccc5c4)ccc1O)(C3)C2`, the CC50 in the data set on HepG2 was 1.84 µg/mL; in the data set on HeLa, 0.49 µg/mL (≈ 1.15 µM). The MIC in the data set with Staphylococcus aureus [3], with Staphylococcus aureus [2], in the data set on Staphylococcus aureus [4] and in the data set on Staphylococcus aureus [5] was 2 µg/mL each time. In data set [1], the 50% haemolytic concentration (HC50) at 1 h was 15.2 µg/mL.

With `CCCCCCCC=Cc1cc(-c2ccc3cc(C(=O)O)ccc3c2)ccc1O`, the CC50 in the data set on HepG2 came to 2.6 µg/mL. The same compound came in with an HC50 at 1 h in [1] of 51.5 µg/mL. Also, the minimal inhibitory concentration (MIC) with Staphylococcus aureus [2] turned out to be 4 µg/mL.

Regarding `CCCCCCCCCc1cc(-c2ccc3cc(CO)ccc3c2)ccc1O`, the CC50 with HepG2 amounted to 7.25 µg/mL. In data set [1], the HC50 at 1 h was above 64 µg/mL. For the same compound, the minimal inhibitory concentration (MIC) in the data set on Staphylococcus aureus [2] is above 64 µg/mL.

For `CC(C)(C)c1cc(-c2ccc3cc(C(=O)O)ccc3c2)ccc1O`, the CC50 with HepG2 was determined as 9.8 µg/mL. This compound yielded a 50% haemolytic concentration (HC50) at 1 h in [1] above 64 µg/mL. In addition, the MIC in the data set on Staphylococcus aureus [2] is 16 µg/mL.

As for `O=C(O)c1ccc2cc(-c3ccc(O)c(C45CC6CC(CC(C6)C4)C5)c3)ccc2c1` [O-DEMETHYLATED ADAPALENE], the CC50 is 1.02 µg/mL with HepG2 and 0.21 µg/mL (≈ 0.527 µM) in the data set with HeLa. In addition, the MIC in the data set with Staphylococcus aureus [3] came out at 1 µg/mL; in the data set on Staphylococcus aureus [7], 2 µg/mL (≈ 5.02 µM); with Staphylococcus aureus [2] it was 1 µg/mL; with Staphylococcus aureus [4] it was 1 µg/mL; with Staphylococcus aureus [5], 1 µg/mL. The “inhibition (INH)” value in the data set with Staphylococcus aureus [6] came out at 90%. Further, the HC50 at 1 h in [1] is above 64 µg/mL.

On to `CN[C@H](CC(C)C)C(=O)N[C@H]1C(=O)N[C@@H](CC(N)=O)C(=O)N[C@H]2C(=O)N[C@H]3C(=O)N[C@H](C(=O)N[C@H](C(=O)O)c4cc(O)cc(O)c4-c4cc3ccc4O)[C@H](O)c3ccc(c(Cl)c3)Oc3cc2cc(c3O[C@@H]2O[C@H](CO)[C@@H](O)[C@H](O)[C@H]2O[C@H]2C[C@](C)(N)[C@H](O)[C@H](C)O2)Oc2ccc(cc2Cl)[C@H]1O` [VANCOMYCIN], for which the minimum inhibitory concentration (MIC) with Staphylococcus aureus [3] is above 64 µg/mL.
